According to patent publication US20150125904A1, “PROBE INCORPORATION MEDIATED BY ENZYMES” (Massachusetts Institute of Technology, priority 2012, published 2015):
Read-outs that look alike come from different tables or passages of the source.

Columns and labels:
[1] = biological target: T1, WTLplA / LAP-YFP in HEK cells (Escherichia coli, UniProt P32099); assay: Azide ligation yield in cells (native gel shift of LAP-YFP), wild-type LplA; type: cell-based, E. coli
T1 construct: expressed in transfected cells; host or cells: HEK cells
T1 sequence (P32099 2-338): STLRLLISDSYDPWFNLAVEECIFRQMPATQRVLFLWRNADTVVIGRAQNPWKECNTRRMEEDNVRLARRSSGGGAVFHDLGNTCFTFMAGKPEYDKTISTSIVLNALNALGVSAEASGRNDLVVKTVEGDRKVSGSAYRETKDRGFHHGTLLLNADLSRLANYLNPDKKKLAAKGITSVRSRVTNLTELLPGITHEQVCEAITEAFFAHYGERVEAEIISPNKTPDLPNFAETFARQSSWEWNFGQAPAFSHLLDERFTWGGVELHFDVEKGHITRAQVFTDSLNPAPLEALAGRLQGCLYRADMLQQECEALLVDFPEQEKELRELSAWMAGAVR
Description: (§1) For azide 7 ligation, cells were transfected with 50 ng WTLplA and 1000 ng pcDNA3-LAP-YFP. For azide 9 ligation, cells were transfected with 500 ng W37ILplA and either 1000 ng pcDNA3-LAP-YFP or pcDNA3-LAP(K⋄A)-YFP using Lipofectamine 2000 (Life Technologies). The LplA:LAP plasmid ratios are identical to the conditions used for imaging. 18 hr after transfection, cells were incubated in growth media (MEM supplemented with 10% FBS) containing 200 μM azide 7 or azide 9 for 30 min or 1 hr at 37° C. Excess azide probe was washed out over 1 hr. […] Cells were then centrifuged at 13,000 rpm for 2 min, and the supernatant was analyzed on a 12% polyacrylamide native gel without SDS (5 μL lysate per lane) at constant 200 V. Prior to Coomassie staining, in-gel fluorescence of YFP was visualized on a FUJIFILM FLA-9000 instrument using LD473 laser and Long Pass Blue (LPB) filter. […]
(§2) We also used a gel shift assay as a separate readout of azide ligation yield inside cells. […] The yield of azide ligation to LAP-YFP was determined by shift on a native polyacrylamide gel. The unmodified fusion protein, visualized by YFP fluorescence, runs at an apparent molecular weight of ˜42 kD. […]

[2] = biological target: Trp37→Ile LplA (Escherichia coli, UniProt P32099, W38I); details: 30 min reaction, 500 μM probe; normalized to TCO2/Trp37→Val
Trp37→Ile LplA, sequence (P32099 2-338 W38I): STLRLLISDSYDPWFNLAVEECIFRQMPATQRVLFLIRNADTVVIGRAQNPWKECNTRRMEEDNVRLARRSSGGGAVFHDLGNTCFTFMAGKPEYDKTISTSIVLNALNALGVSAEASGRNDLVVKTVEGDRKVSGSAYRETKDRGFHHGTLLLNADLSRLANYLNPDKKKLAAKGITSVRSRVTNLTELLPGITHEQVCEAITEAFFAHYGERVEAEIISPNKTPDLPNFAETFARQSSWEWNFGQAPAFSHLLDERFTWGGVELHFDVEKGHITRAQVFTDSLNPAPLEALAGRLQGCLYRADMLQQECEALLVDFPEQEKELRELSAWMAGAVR
Description: LplA protein was purified as previously described2 and stored at −80° C. in 20 mM Tris-HCl, pH 7.5 supplementated with 10% v/v glycerol. Reactions were quenched with 30 mM EDTA (final concentration) and resolved by HPLC (Varian ProStar) on a C-18 column using a linear gradient of 25-60% acetonitrile in H2O (with 0.1% v/v trifluoroacetic acid) over 14 minutes. Species were detected at 210 nm absorbance. Peaks corresponding to LAP and its trans-cyclooctene adducts were confirmed by ESI mass spectrometry. The extent of conversion was calculated from ratios of peak areas, neglecting minor extinction coefficient changes to LAP due to trans-cyclooctene ligation.
The relative abilities of wild-type and mutant ligases to ligate TCO1-3 onto LplA acceptor peptide (LAP) were measured by an HPLC assay after 30 min. reaction time. […] Errors, ±1 s. d.

[3] = biological target: W37VLplA (Escherichia coli, UniProt P32099, W38V); details: 500 μM probe, 500 μM LAP, 30° C.
W37VLplA, sequence (P32099 2-338 W38V): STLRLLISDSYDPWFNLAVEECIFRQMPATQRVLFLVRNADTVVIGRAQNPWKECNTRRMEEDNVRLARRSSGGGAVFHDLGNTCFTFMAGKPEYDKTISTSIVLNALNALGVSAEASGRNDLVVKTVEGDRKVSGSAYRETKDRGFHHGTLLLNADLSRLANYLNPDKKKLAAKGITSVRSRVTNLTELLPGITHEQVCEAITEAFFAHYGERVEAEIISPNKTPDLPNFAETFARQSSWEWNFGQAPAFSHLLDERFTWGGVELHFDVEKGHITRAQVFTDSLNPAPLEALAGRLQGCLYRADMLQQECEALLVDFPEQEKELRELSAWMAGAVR
Description: After 5, 10, 15 and 20 minutes, an aliquot was drawn from the reaction vial, quenched with 30 mM EDTA (final concentration) and the product quantified by HPLC as in Table 3. The plot of product concentration against time was fitted to a linear line whose slope corresponds to the initial velocity. The value of kcat was calculated from the Michaelis-Menten equation Vmax=(kcat)([Enzyme]) at substrate-saturating conditions. Measurements were performed in triplicate.

[4] = biological target: T2, W37ILplA (Escherichia coli, UniProt P32099, W38I); assay: In vitro screening for Ald and Hyd ligation activity (HPLC); type: biochemical, E. coli; details: 1 μM W37ILplA, 500 μM probe
T2 construct: His6 (N); made in house; host or cells: E. coli
T2 sequence (P32099 2-338 W38I): as the sequence (P32099 2-338 W38I) above
Description: Ligation reactions were assembled as follows: 1 μM of purified LplA mutant (Uttamapinant, et al., 2010), 150 μM synthetic LAP2 peptide ([…]; SEQ ID NO:4), 5 mM ATP, 500 μM of either Ald or Hyd probe, 5 mM magnesium acetate, and 25 mM Na2HPO4 pH 7.2 in a total volume of 20 μL. Reactions were incubated for 5 to 60 min at 30° C. and then quenched with EDTA to a final concentration of 45 mM. Samples were diluted to a total volume of 80 μL in conjugation buffer (10 mM Na2HPO4, 3.2 mM KH2PO4, 2.7 mM KCl, 140 mM NaCl, pH 5.0) and analyzed on a Varian Prostar HPLC using a reverse-phase C18 Microsorb-MV 100 column (250×4.6 mm). Chromatograms were recorded at 210 nm. For analysis of the aldehyde ligation reaction we used a 10-minute gradient of 30-60% acetonitrile in water with 0.1% trifluoroacetic acid under 1 mL/minute flow rate. For analysis of the hydrazine ligation reaction a gradient of 25-60% over 14 minutes with the same solvents was used. Percent conversions were calculated by dividing the product peak area by the sum of (product+starting material) peak areas. Reactions were performed in triplicate (Ald) or duplicate (Hyd) and the average values are shown. Reactions in FIG. 27C were performed using the conditions above with a 70 minute reaction time for Ald and 120 minute reaction time for Hyd.

[5] = biological target: T2, W37ILplA; assay: Measurement of kcat values for Ald and Hyd ligation; type: biochemical, E. coli; details: for Vmax / kcat: 1 μM W37ILplA, 600 μM LAP, 500 μM probe
Description: Values of kcat for W37ILplA ligation of the Ald and Hyd probes onto LAP peptide were determined by measuring the initial reaction rates by HPLC. The conditions used were as follows: 1 μM W37ILplA, 600 μM LAP, 500 μM of Ald or Hyd, 2 mM magnesium acetate, and 25 mM sodium phosphate buffer, pH 7.2. Each initial rate was measured in triplicate and the average value reported. The error shown represents ±1 s.d. The equation kcat=Vmax/[E] was used to determine the kcat value.

[6] = biological target: T2, W37ILplA; type: biochemical, E. coli
Description: Reactions were quenched with 40 mM EDTA (ethylenediaminetetraacetic acid, final concentration). Percent conversion to LAP-azide adduct was determined by HPLC with a C18 reverse phase column, recording absorbance at 210 nm. Elution conditions were 30-60% acetonitrile in water with 0.1% trifluoroacetic acid over 20 minutes at 1.0 mL/min flow rate. The percent conversion was calculated from the ratio of LAP-azide to sum of (unmodified LAP+LAP-azide). Reactions containing 1 μM LplA enzyme, 500 μM azide 9, and 300 μM LAP peptide were incubated at 30° C. for 2 hours. To determine kinetic measurements, reactions containing 100 nM W37ILplA, 25-700 μM azide 9, and 600 μM LAP peptide were incubated at 30° C., before quenching at various time points with EDTA.
Reactions were set up as described in the main text. Aliquots were taken and quenched before product conversion exceeded 5%. To calculate initial rates, we determined the amount of product at each time point by generating a calibration curve using purified LAP and LAP-azide 9 mixed at different ratios. This curve correlated the measured ratio of integrated HPLC peak areas to the actual ratio, i.e. adjusted for any differences in extinction coefficient of LAP vs. LAP-azide 9. Initial rates (Vo) were determined at each azide 9 concentration, by plotting the amount of LAP-azide 9 product against time. The slope of the line gives Vo. Vo values were then plotted against azide 9 concentration in FIG. S3C, and Origin 8.5.1 was used to fit the curve to the Michaelis-Menten equation Vo=Vmax[azide 9]/(Km+[azide 9]). From the Vmax, kcat was calculated using Vmax=kcat[E]total. Measurements of Vo values at each azide 9 concentration were performed in triplicate.

[7] = biological target: T3, W37ILplA / LAP-YFP in HEK cells (Escherichia coli, UniProt P32099, W38I); assay: Azide ligation yield in cells (native gel shift of LAP-YFP), W37ILplA; type: cell-based, E. coli
T3 construct: expressed in transfected cells; host or cells: HEK cells
T3 sequence (P32099 2-338 W38I): as above
Description: as §1, §2

[8] = Tetrazine-dye fluorescence turn-on after Diels-Alder cycloaddition; type: physicochemical; details: DPBS pH 7.4, >100-fold excess TCO1
Description: Tetrazine-fluorophore conjugates were dissolved in Dulbecco's phosphate buffered saline, pH 7.4 at approximately 100 nM concentration. Solutions with >100-fold excess TCO1 in DMSO or DMSO vehicle alone added were transferred into an opaque, flat-bottom 96-well plate (Greiner Bio One) and their fluorescence emission scanned with a Safire Tecan fluorescence microplate reader. Excitation was fixed at 430 nm for fluorescein, 530 nm for TMR, and 610 nm for Alexa 647. Fold-changes in fluorescence turn-on are reported at respective fluorescence emission maximum wavelengths.

[9] = In vitro second-order Diels-Alder cycloaddition rate constant; details: DPBS, pseudo-first-order approximation
Description: Ligation reaction was allowed to proceed at 30° C. for 4 hours to maximize ligation yield. The mixture was then resolved by preparatory HPLC on a C-18 column (25-45% acetonitrile over 30 min. linear gradient, supplemented with 0.1% v/v trifluoroacetic acid), where the product eluted at 19 min. and its identity confirmed by ESI mass spectrometry. The eluate was freeze-dried into a white powder and dissolved in DPBS for subsequent measurements.
To measure second-order rate constant by pseudo-first-order approximation, 100 μL Tz1- or Tz2-fluorescein (100 nM in DPBS) was loaded into an opaque, flat-bottom 96-well plate (Greiner Bio One), then mixed with 100 μL LAP-TCO2 (3.3 μM in DPBS). The fluorescence intensity at 520 nm was immediately recorded at 9-second intervals until the reaction reached completion in approximately 5 minutes. The fluorescence intensity was then converted to [tetrazine-fluorescein], assuming that initial fluorescence corresponded to 50 nM and final fluorescence corresponded to 0 nM tetrazine-fluorescein. […] Measurements were performed in triplicate.

[10] = tested on: LAP-LDL receptor on HEK cells; assay: Live cell surface fluorogenic labeling without dye washout; type: cell-based, human; details: 50 nM, without rinsing
Description: After 5 rinses with Tyrode's buffer, the chamber was placed on the microscope objective covered with 200 μL of the same buffer. Image acquisition sequence was initiated immediately after 200 μL of 100 nM Tz1-fluorescein in Tyrode's buffer was added to the chamber, and briefly mixed by pipeting. Final concentration of Tz1-fluorescein was therefore 50 nM after mixing. LAP-LDL receptor and a mCherry fluorescent protein transfection marker were transfected at a 1:1 ratio, with altogether 400 ng plasmid per 1 cm^2 culture.
To quantify the imaging signal/noise ratio, 17 cells with obvious surface fluorescence (by eye) at the 180 sec. time point were chosen and separate masks created automatically by the Slidebook software over the fluorescent rims. The averaged pixel intensity was defined as “signal”. To measure noise, 10 cells with no obvious surface fluorescence (by eye) at the 180 sec. time point were chosen, and rectangular masks created manually over the interiors of these cells. The averaged (over all 10 masks) pixel intensity was defined as “noise”.

[11] = 100 nM W37ILplA, 600 μM LAP, 30° C.

2-Azidomethyl-4-chloropyridine [Azide 7]
ligation yield in cells, repeat of the experiment ([1]; 50 ng WTLplA plasmid): 67%
ligation yield in cells ([1]; 200 μM azide, 1 hour labeling, densitometry): 73%

O=C(O)CCCNC(=O)O[C@H]1CC/C=C/CCC1 (stereo in doubt) [TCO1, rel-(1R-4E-pR)-cyclooct-4-ene-1-yl-N-butyric acid carbamate]
Ligation efficiency (average, normalized product percentage), Trp37→Ile [2]: 0.5 ± 0.4%

O=C(O)CCCCNC(=O)O[C@H]1CC/C=C/CCC1 (stereo in doubt) [TCO2, rel-(1R-4E-pR)-cyclooct-4-ene-1-yl-N-pentanoic acid carbamate]
Michaelis-Menten kcat of ligation onto LAP [3]: 0.34 ± 0.02 s⁻¹

O=Cc1ccc(C(=O)NCCCCC(=O)O)cc1 [Ald]
reaction completion ([4]; 150 μM LAP peptide, 5 minutes): 62%
activity of Ald versus Hyd [5]: ten-fold greater activity
Vmax [5]: 19.7 ± 0.7 µM/min
kcat [5]: 0.33 ± 0.01 s⁻¹

NNc1ccc(C(=O)NCCCCC(=O)O)cn1 [Hyd]
reaction completion ([4]; 60 min): 50%
Vmax [5]: 1.25 ± 0.16 µM/min
kcat [5]: 0.021 ± 0.003 s⁻¹

[N-]=[N+]=NCCCCCCCCCC(=O)O [azide 9, 10-azidodecanoic acid]
Km lower than azide 7 ligation catalyzed by wild-type LplA [6]: 4 fold
improvement in kcat/Km over azide 7 ligation catalyzed by wild-type LplA [6]: 2 fold
kcat reduced compared to azide 7 ligation catalyzed by wild-type LplA [6]: 1.8 fold
Km [6, 11]: 35 µM
kcat [6, 11]: 0.0603 s⁻¹
ligation yield in cells, repeat of the experiment ([7]; 500 ng W37ILplA plasmid): 89%
ligation yield in cells ([7]; 200 μM azide, 30 minutes incubation): nearly quantitative

Aminobenzyltetrazine carboxyfluorescein [Tz1-fluorescein]
increase in fluorescein emission upon reaction with excess trans-cyclooctene [8]: 13.4 fold
second order rate constant for reaction with TCO2-ligated LAP [9]: 5000 ± 700 M⁻¹ s⁻¹
time to saturation of signal-to-noise ratio [10]: approximately 3 minutes
